Data: patent publication US20100081719A1 (priority 2006, published 2010)
Several values for one entry are separate records, joined by “and”; a condition that tells them apart may be missing. Identical values can stand only once. Entries after “also recorded” stand apart in the source; their conditions may differ. Counter-ions that a name gives are not always drawn.

Test system: patients who met the 1990 ACR criteria for fibromyalgia syndrome
Experiment: Multi-center double-blind, randomized, placebo-controlled study of milnacipran for the treatment of fibromyalgia (Example 1)
Assay type: in vivo, human
Conditions: for Responders for the treatment of the pain of fibromyalgia (% = m/n): observed cases (OC), intent-to-treat
Method: The primary outcome was a composite responder analysis assessing response rate at weeks 14 and 15, and the secondary analysis assessed response rate at weeks 26 and 27.
This was a multi-center, randomized, double-blinded, placebo-controlled three-arm study, which enrolled 888 patients who met the 1990 ACR criteria for fibromyalgia syndrome as well as the more detailed admission criteria outlined in the protocol.
Patients recorded baseline symptoms for the first two weeks after washing off anti-depressants, benzodiazepines, and certain other drugs that could potentially interfere with efficacy measurements.
All randomized medications (placebo and milnacipran) were administered in a split-dose (BID) fashion. The doses were administered in a dose escalation regimen as outlined below:
d. FMS Status Assessments: Patient pain 24 hour and 7 day recall VAS, the SF-36, Multiple Ability Self-report Questionnaire (MASQ, cognitive function), the Multidimensional Health Assessment Questionnaire (MDHAQ) and the Multidimensional Fatigue Inventory (MFI). Diary assessments include current pain (morning, random daily, and evening reports); daily recall pain (morning report); medications taken (evening report); overall pain past week (weekly report), overall fatigue in the last week (weekly report), and the extent that pain kept the patient from caring for themselves (weekly report).
The SF-36 is a multi-purpose, short-form health survey. It yields an 8-scale profile of functional health and well-being scores, psychometrically-based physical and mental health summary measures, and a preference-based health utility index (Ware J E, Snow K K, Kosinski M, Gandek B. SF-36® Health Survey Manual and Interpretation Guide. Boston, Mass.: New England Medical Center, The Health Institute, 1993). […] The SF-36 has proven useful in surveys of general and specific populations, comparing the relative burden of diseases, and in differentiating the health benefits produced by a wide range of different treatments.
The primary endpoint of this study was a composite responder analysis implementing analysis of three domains of interest, evaluated at […]. The domains measured were:
For the primary analysis, the pain domain score was determined by a calculation that compared the average of treatment weeks 14 and 15 to the two baseline weeks, and treatment weeks 26 and 27 vs. baseline for the secondary analysis. The last observation was carried forward if neither the week 14 nor week 15 (or week 26/27) patient self-reported pain score is available to compare to the baseline value.
A responder was defined as a subject who experienced a greater than 30% reduction in pain from baseline and improvement on the PGIC.
See Table 1 for a summary of the results in the Intent-to-Treat Population and Table 2 for a summary of the Last Observation Carried Forward (LOCF), Baseline Observation Carried Forward (BOCF) and study completer (OC) populations. LOCF is an analysis in which observations are carried forward to the last time point for patients who dropped out. The LOCF analysis treats the carried-forward data as observed data at the last time point. BOCF is an analysis that requires the patient remain active in the trial to be evaluated for response. If a patient withdraws from the trial for any reason they are classed as a non-responder irregardless of their pain and global scores at the time of withdrawal.

CCN(CC)C(=O)C1(c2ccccc2)CC1CN (racemic) [milnacipran, Z-2-aminomethyl-1-phenyl-N, N-diethylcyclopropanecarboxamide hydrochloride]
Treatment of fatigue associated with FMS (MFI total score / MFI physical fatigue), comparison with placebo (100 mg/day vs placebo): superior to placebo | SF-36 Physical Function (100 mg/day, treatment week 3): 6.31 | SF-36 Physical Function (100 mg/day, treatment week 7): 6.62 | SF-36 Physical Function (100 mg/day, treatment week 11): 7.70 | SF-36 Physical Function (100 mg/day, treatment week 15): 7.70 | SF-36 Physical Function (100 mg/day, treatment week 19): 7.71 | SF-36 Physical Function (100 mg/day, treatment week 23): 7.07 | SF-36 Physical Function (100 mg/day, treatment week 27): 7.11 | Responders for the treatment of the pain of fibromyalgia (% = m/n) (100 mg/day, treatment weeks 14-15 (3 month), hydrochloride): 53.33% and 53.3% | Responders for the treatment of the pain of fibromyalgia (% = m/n) (100 mg/day, treatment weeks 14-15 (3 month), listed as Milnacipran, hydrochloride): 72 (53.33) % | Responders for the treatment of the pain of fibromyalgia (% = m/n) (100 mg/day, treatment weeks 26-27 (6 month), hydrochloride): 49.59% and 49.6% | Responders for the treatment of the pain of fibromyalgia (% = m/n) (100 mg/day, treatment weeks 26-27 (6 month), listed as Milnacipran, hydrochloride): 60 (49.59) % | Individual component responder rate, PGIC (LOCF) (100 mg, 3 month): 54.0% | Individual component responder rate, Pain (LOCF) (100 mg, 3 month): 35.7% | Pain composite responder rate, Primary Analysis (LOCF) (100 mg, 3 month): 33.5% | Pain composite responder rate, Sensitivity Analysis I (BOCF) (100 mg, 3 month): 32.1% | Pain composite responder rate, Sensitivity Analysis II (100 mg, 3 month): 32.% | Pain composite responder rate, Sensitivity Analysis III (100 mg, 3 month): 32.1% | Individual component responder rate, PGIC (LOCF) (100 mg, 6 month): 49.6% | Individual component responder rate, Pain (LOCF) (100 mg, 6 month): 35.7% | Pain composite responder rate, Primary Analysis (LOCF) (100 mg, 6 month): 30.8% | Pain composite responder rate, Sensitivity Analysis I (BOCF) (100 mg, 6 month): 26.8% | Pain composite responder rate, Sensitivity Analysis II (100 mg, 6 month): 27.2% | Pain composite responder rate, Sensitivity Analysis III (100 mg, 6 month): 29.5% | MFI (change from baseline) Physical fatigue (range 4 to 20) (100 mg, treatment week 3): −0.99 | MFI (change from baseline) Total score (range 20 to 100) (100 mg, treatment week 3): −3.68 | MFI (change from baseline) Physical fatigue (range 4 to 20) (100 mg, treatment week 7): −1.23 | MFI (change from baseline) Total score (range 20 to 100) (100 mg, treatment week 7): −4.32 | MFI (change from baseline) Physical fatigue (range 4 to 20) (100 mg, treatment week 11): −1.46 | MFI (change from baseline) Total score (range 20 to 100) (100 mg, treatment week 11): −5.16 | MFI (change from baseline) Physical fatigue (range 4 to 20) (100 mg, treatment week 15): −1.29 | MFI (change from baseline) Total score (range 20 to 100) (100 mg, treatment week 15): −5.15 | MFI (change from baseline) Physical fatigue (range 4 to 20) (100 mg, treatment week 19): −1.34 | MFI (change from baseline) Total score (range 20 to 100) (100 mg, treatment week 19): −4.97 | MFI (change from baseline) Physical fatigue (range 4 to 20) (100 mg, treatment week 23): −1.23 | MFI (change from baseline) Total score (range 20 to 100) (100 mg, treatment week 23): −4.44 | MFI (change from baseline) Physical fatigue (range 4 to 20) (100 mg, treatment week 27): −1.37 | MFI (change from baseline) Total score (range 20 to 100) (100 mg, treatment week 27): −5.00 | Treatment of fatigue associated with FMS (MFI), comparison of doses (200 mg/day (high dose) vs 100 mg/day, hydrochloride): superior to milnacipran 100 mg/day; also recorded: significantly more effective treatment | Treatment of fatigue associated with FMS (MFI total score / MFI physical fatigue), comparison with placebo (200 mg/day vs placebo): superior to placebo | SF-36 Physical Function (200 mg/day, treatment week 3): 7.44 | SF-36 Physical Function (200 mg/day, treatment week 7): 8.80 | SF-36 Physical Function (200 mg/day, treatment week 11): 8.46 | SF-36 Physical Function (200 mg/day, treatment week 15): 8.44 | SF-36 Physical Function (200 mg/day, treatment week 19): 8.37 | SF-36 Physical Function (200 mg/day, treatment week 23): 7.85 | SF-36 Physical Function (200 mg/day, treatment week 27): 7.95 | Responders for the treatment of the pain of fibromyalgia (% = m/n) (200 mg/day, treatment weeks 14-15 (3 month), hydrochloride): 55.0% | Responders for the treatment of the pain of fibromyalgia (% = m/n) (200 mg/day, treatment weeks 14-15 (3 month), listed as Milnacipran, hydrochloride): 143 (55.00) % | Responders for the treatment of the pain of fibromyalgia (% = m/n) (200 mg/day, treatment weeks 26-27 (6 month), hydrochloride): 51.74% and 51.7% | Responders for the treatment of the pain of fibromyalgia (% = m/n) (200 mg/day, treatment weeks 26-27 (6 month), listed as Milnacipran, hydrochloride): 119 (51.74) % | Individual component responder rate, PGIC (LOCF) (200 mg, 3 month): 50.6% | Individual component responder rate, Pain (LOCF) (200 mg, 3 month): 38.3% | Pain composite responder rate, Primary Analysis (LOCF) (200 mg, 3 month): 34.9% | Pain composite responder rate, Sensitivity Analysis I (BOCF) (200 mg, 3 month): 32.4% | Pain composite responder rate, Sensitivity Analysis II (200 mg, 3 month): 32.7% | Pain composite responder rate, Sensitivity Analysis III (200 mg, 3 month): 32.4% | Individual component responder rate, PGIC (LOCF) (200 mg, 6 month): 49.9% | Individual component responder rate, Pain (LOCF) (200 mg, 6 month): 35.4% | Pain composite responder rate, Primary Analysis (LOCF) (200 mg, 6 month): 32.2% | Pain composite responder rate, Sensitivity Analysis I (BOCF) (200 mg, 6 month): 27.0% | Pain composite responder rate, Sensitivity Analysis II (200 mg, 6 month): 28.6% | Pain composite responder rate, Sensitivity Analysis III (200 mg, 6 month): 29.9% | MFI (change from baseline) Physical fatigue (range 4 to 20) (200 mg, treatment week 3): −1.20 | MFI (change from baseline) Total score (range 20 to 100) (200 mg, treatment week 3): −4.58 | MFI (change from baseline) Physical fatigue (range 4 to 20) (200 mg, treatment week 7): −1.56 | MFI (change from baseline) Total score (range 20 to 100) (200 mg, treatment week 7): −5.92 | MFI (change from baseline) Physical fatigue (range 4 to 20) (200 mg, treatment week 11): −1.54 | MFI (change from baseline) Total score (range 20 to 100) (200 mg, treatment week 11): −5.67 | MFI (change from baseline) Physical fatigue (range 4 to 20) (200 mg, treatment week 15): −1.50 | MFI (change from baseline) Total score (range 20 to 100) (200 mg, treatment week 15): −5.62 | MFI (change from baseline) Physical fatigue (range 4 to 20) (200 mg, treatment week 19): −1.54 | MFI (change from baseline) Total score (range 20 to 100) (200 mg, treatment week 19): −5.67 | MFI (change from baseline) Physical fatigue (range 4 to 20) (200 mg, treatment week 23): −1.44 | MFI (change from baseline) Total score (range 20 to 100) (200 mg, treatment week 23): −4.94 | MFI (change from baseline) Physical fatigue (range 4 to 20) (200 mg, treatment week 27): −1.49 | MFI (change from baseline) Total score (range 20 to 100) (200 mg, treatment week 27): −5.80 | Relief from fibromyalgia and its symptoms (continued administration (daily for at least three months)): long-term (at least three months) relief | Long-term treatment of fibromyalgia and some of its symptoms, comparison of doses (low dose (100 mg/day) vs high dose (200 mg/day), continued administration): almost as effective as
